Target: T1, human bile salt export pump (BSEP) efflux transporter (Homo sapiens, UniProt O95342)
T1 construct: purchased SOLVO Biotechnology Charles River Laboratories, Szeged, Hungary; host or cells: HEK293 (inside out membrane vesicles)
Assay: BSEP Vesicular Transport Inhibition Assay (IC50 determination)
Type: biochemical
Conditions: human BSEP (HEK293) vesicles; taurocholate 0.2 μM; 4 mM Mg-ATP; 10 concentrations, 1 replicate
Method: The vesicular transport (VT) assays were performed using inside out membrane vesicles derived from HEK293 cells expressing the specified human bile salt export pump (BSEP) efflux transporter. The membrane vesicles were procured from SOLVO Biotechnology Charles River Laboratories, Szeged, Hungary.
The principle of the assay relies on measuring the accumulation of substrate into inside out vesicles containing the efflux transporter. By utilizing inside out vesicles, the ATP-dependent transport of substrate is directed into the vesicular lumen, where low permeability compounds are then essentially trapped.
For the IC50 screen inhibition assay, 10 concentrations of each compound were tested in the presence of ATP (active transport) in 1 replicate.
The solvent control (DMSO) was tested in the presence of ATP (active transport) and in the presence of AMP (background) in 8 replicates.
Vesicular transport inhibition assays were performed using the specific parameters for each transporter inhibition assay described in Table 53.
Table 54 specifies treatment groups and concentration of compounds, that were examined in the vesicular transport inhibition assay. Detailed data of IC50 screen inhibition assay are shown in Table 55 and detailed data of 1 concentration inhibition assay are shown in Table 56.
The vesicular transport inhibition assay was performed with 4 mM Mg-ATP. For the IC50 screen inhibition assay, 10 concentrations of each compound were tested in the presence of ATP in 1 replicate. For the 1 concentration inhibition assay, 1 concentration of each compound was tested in the presence of ATP (active transport) in 2 replicates. The solvent control (DMSO) was tested in the presence of 4 mM Mg-ATP (active transport) and in the presence of 4 mM AMP (background) in 8 replicates.
The BSEP membrane vesicle suspension was mixed with the ice-cold transport buffer, then the taurocholate probe substrate solution was added (Reaction mixture, 50 μL per well). The compounds were added to the reaction mixture at 1.5-times the final assay concentration. […].
Reaction mixtures and the start reagent (Mg-ATP or AMP in transport buffer) were pre-warmed separately for 15 minutes to reach the incubation temperature of 37° C. […]
The reaction was initiated by the addition of the start reagent (25 μL) to the reaction mixture (diluting the reaction mixture to the final concentration). […] After the 5-minute incubation at 37° C., the reaction was stopped by the addition of 250 μL ice-cold washing mix to each well. […]
The samples were then be transferred to a filter plate and washed with 200 μL cold washing mix5-times to remove any free compounds or taurocholate probe substrate. The amount of taurocholate probe substrate inside the filtered vesicles were determined by liquid scintillation counting. […]

T1 sequence (O95342 whole entry): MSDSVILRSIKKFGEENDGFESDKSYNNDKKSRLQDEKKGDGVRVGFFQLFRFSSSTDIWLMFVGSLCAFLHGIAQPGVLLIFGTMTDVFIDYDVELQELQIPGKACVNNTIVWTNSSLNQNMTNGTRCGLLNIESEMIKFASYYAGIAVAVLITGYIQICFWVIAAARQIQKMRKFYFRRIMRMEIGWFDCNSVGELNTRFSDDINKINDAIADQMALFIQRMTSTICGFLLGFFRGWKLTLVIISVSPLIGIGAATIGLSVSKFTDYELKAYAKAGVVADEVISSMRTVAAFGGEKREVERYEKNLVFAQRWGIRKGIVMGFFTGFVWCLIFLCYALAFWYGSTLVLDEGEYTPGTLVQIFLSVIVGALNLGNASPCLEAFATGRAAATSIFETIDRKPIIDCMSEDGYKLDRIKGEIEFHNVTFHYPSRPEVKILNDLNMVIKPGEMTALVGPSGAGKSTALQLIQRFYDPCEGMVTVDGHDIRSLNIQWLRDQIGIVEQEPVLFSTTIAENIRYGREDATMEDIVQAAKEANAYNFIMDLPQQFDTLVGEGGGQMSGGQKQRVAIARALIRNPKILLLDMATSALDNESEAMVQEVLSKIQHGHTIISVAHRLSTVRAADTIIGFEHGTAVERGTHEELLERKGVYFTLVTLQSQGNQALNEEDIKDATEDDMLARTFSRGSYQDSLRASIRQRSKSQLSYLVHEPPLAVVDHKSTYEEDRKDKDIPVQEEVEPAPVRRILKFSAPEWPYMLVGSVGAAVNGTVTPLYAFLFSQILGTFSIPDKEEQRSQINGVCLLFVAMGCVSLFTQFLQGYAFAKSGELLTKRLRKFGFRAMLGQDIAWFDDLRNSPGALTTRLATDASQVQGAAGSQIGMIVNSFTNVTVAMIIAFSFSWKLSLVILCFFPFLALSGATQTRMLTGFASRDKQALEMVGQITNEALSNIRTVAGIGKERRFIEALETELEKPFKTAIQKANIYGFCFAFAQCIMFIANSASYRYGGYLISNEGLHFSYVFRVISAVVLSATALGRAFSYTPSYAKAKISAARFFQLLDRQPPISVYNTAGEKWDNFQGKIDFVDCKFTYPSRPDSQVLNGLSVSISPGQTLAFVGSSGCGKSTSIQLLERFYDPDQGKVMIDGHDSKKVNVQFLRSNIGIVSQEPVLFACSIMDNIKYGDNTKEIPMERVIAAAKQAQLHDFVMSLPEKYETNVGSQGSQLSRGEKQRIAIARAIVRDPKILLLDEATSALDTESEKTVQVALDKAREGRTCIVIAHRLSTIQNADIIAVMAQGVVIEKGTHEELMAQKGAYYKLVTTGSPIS

Question: Which BSEP Inhibition/IC50 does the source give for CCN(C)S(=O)(=O)Nc1ccc(F)c(Oc2ccc3ncc([C@H]4COC5(CCN(C6CC7(C6)CN(c6cc8c(cc6F)c(N6CCC(=O)NC6=O)nn8C)C7)CC5)C4)nc3c2)c1C#N [Compound 158, (3S)-3-[7-[2-cyano-3-[[ethyl(methyl)sulfamoyl]amino]-6-fluoro-phenoxy]quinoxalin-2-yl]-8-[2-[3-(2,4-dioxohexahydropyrimidin-1-yl)-5-fluoro-1-methyl-indazol-6-yl]-2-azaspiro[3.3]heptan-6-yl]-1-oxa-8-azaspiro[4.5]decane] here?
Answer: 7.53 µM

Question: CCN(C)S(=O)(=O)Nc1ccc(F)c(Oc2ccc3ncc(C4CC5(CCN(C6CC7(C6)CN(c6cc8c(cc6F)c(N6CCC(=O)NC6=O)nn8C)C7)CC5)C4)nc3c2)c1C#N (centres unmarked) [Compound 177, 7-[2-cyano-3-[[ethyl(methyl)sulfamoyl]amino]-6-fluoro-phenoxy]-2-[7-[2-[3-(2,4-dioxohexahydropyrimidin-1-yl)-5-fluoro-1-methyl-indazol-6-yl]-2-azaspiro[3.3]heptan-6-yl]-7-azaspiro[3.5]nonan-2-yl]quinoxaline] was tested. Which BSEP Inhibition/IC50 did it give?
Answer: 7.36 µM

Question: COC1CN(S(=O)(=O)Nc2ccc(F)c(Oc3ccc4ncn([C@H]5COC6(CCN(C7CC8(C7)CN(c7cc9c(cc7F)c(N7CCC(=O)NC7=O)nn9C)C8)CC6)C5)c(=O)c4c3)c2C#N)C1 [Compound 246, N-[2-cyano-3-[3-[(3R)-8-[2-[3-(2,4-dioxohexahydropyrimidin-1-yl)-5-fluoro-1-methyl-indazol-6-yl]-2-azaspiro[3.3]heptan-6-yl]-1-oxa-8-azaspiro[4.5]decan-3-yl]-4-oxo-quinazolin-6-yl]oxy-4-fluoro-phenyl]-3-methoxy-azetidine-1-sulfonamide] was tested. Which BSEP Inhibition/IC50 did it give?
Answer: 8.79 µM

Question: How did the BSEP Inhibition/IC50 turn out when Cn1nc(N2CCC(=O)NC2=O)c2cc(F)c(N3CC4(CC(N5CCC6(CC5)CC(n5cnc7ccc(Oc8c(F)ccc(NS(=O)(=O)C9CCCC9)c8C#N)cc7c5=O)C6)C4)C3)cc21 [Compound 250, N-[2-cyano-3-[3-[7-[2-[3-(2,4-dioxohexahydropyrimidin-1-yl)-5-fluoro-1-methyl-indazol-6-yl]-2-azaspiro[3.3]heptan-6-yl]-7-azaspiro[3.5]nonan-2-yl]-4-oxo-quinazolin-6-yl]oxy-4-fluoro-phenyl]cyclopentanesulfonamide] was run?
Answer: 8.45 µM

Question: For Cn1nc(N2CCC(=O)NC2=O)c2cc(F)c(N3CC4(CC(N5CCC6(CC5)C[C@@H](n5cnc7ccc(Oc8c(F)ccc(NS(=O)(=O)N9CC%10(CCC%10)C9)c8C#N)cc7c5=O)CO6)C4)C3)cc21 [Compound 254, N-[2-cyano-3-[3-[(3R)-8-[2-[3-(2,4-dioxohexahydropyrimidin-1-yl)-5-fluoro-1-methyl-indazol-6-yl]-2-azaspiro[3.3]heptan-6-yl]-1-oxa-8-azaspiro[4.5]decan-3-yl]-4-oxo-quinazolin-6-yl]oxy-4-fluoro-phenyl]-2-azaspiro[3.3]heptane-2-sulfonamide], which BSEP Inhibition/IC50 is on record?
Answer: 1.74 µM

Same assay, conditions: human BSEP (HEK293) vesicles; taurocholate 0.2 μM; 4 mM Mg-ATP; 10 concentrations, 1 replicate; in nM

Question: How did the “BSEP Inhibition/IC50” value turn out when CCN(C)S(=O)(=O)Nc1ccc(F)c(Oc2ccc3ncn(C4CC5(CCN(C6CCN(c7cc8c(cc7F)c(N7CCC(=O)NC7=O)nn8C)CC6)CC5)C4)c(=O)c3c2)c1C#N [Compound 156, 6-[2-cyano-3-[[ethyl(methyl)sulfamoyl]amino]-6-fluoro-phenoxy]-3-[7-[1-[3-(2,4-dioxohexahydropyrimidin-1-yl)-5-fluoro-1-methyl-indazol-6-yl]-4-piperidyl]-7-azaspiro[3.5]nonan-2-yl]-4-oxo-quinazoline] was run?
Answer: >40000

Question: How did the “BSEP Inhibition/IC50” value turn out when Cn1nc(N2CCC(=O)NC2=O)c2cc(F)c(N3CC4(CC(N5CCC6(CC5)CC(n5cnc7ccc(Oc8c(F)ccc(NS(=O)(=O)C9CCC9)c8C#N)cc7c5=O)C6)C4)C3)cc21 [Compound 259, N-[2-cyano-3-[3-[7-[2-[3-(2,4-dioxohexahydropyrimidin-1-yl)-5-fluoro-1-methyl-indazol-6-yl]-2-azaspiro[3.3]heptan-6-yl]-7-azaspiro[3.5]nonan-2-yl]-4-oxo-quinazolin-6-yl]oxy-4-fluoro-phenyl]cyclobutanesulfonamide] was run?
Answer: 12760

Question: With Cn1nc(N2CCC(=O)NC2=O)c2cc(F)c(N3CC4(CC(N5CCC6(CC5)CC(n5cnc7ccc(Oc8c(F)ccc(NS(=O)(=O)C9CC9)c8C#N)cc7c5=O)C6)C4)C3)cc21 [Compound 260, N-[2-cyano-3-[3-[7-[2-[3-(2,4-dioxohexahydropyrimidin-1-yl)-5-fluoro-1-methyl-indazol-6-yl]-2-azaspiro[3.3]heptan-6-yl]-7-azaspiro[3.5]nonan-2-yl]-4-oxo-quinazolin-6-yl]oxy-4-fluoro-phenyl]cyclopropanesulfonamide] as the compound, how does the “BSEP Inhibition/IC50” value read?
Answer: 12720

Question: For Cn1nc(N2CCC(=O)NC2=O)c2cc(F)c(N3CC4(CC(N5CCC6(CC5)CC(n5cnc7ccc(Oc8c(F)ccc(NS(=O)(=O)N9CC[C@@H](F)C9)c8C#N)cc7c5=O)C6)C4)C3)cc21 [Compound 261, (3R)-N-[2-cyano-3-[3-[7-[2-[3-(2,4-dioxohexahydropyrimidin-1-yl)-5-fluoro-1-methyl-indazol-6-yl]-2-azaspiro[3.3]heptan-6-yl]-7-azaspiro[3.5]nonan-2-yl]-4-oxo-quinazolin-6-yl]oxy-4-fluoro-phenyl]-3-fluoro-pyrrolidine-1-sulfonamide], which “BSEP Inhibition/IC50” value is on record?
Answer: >40000

Question: With CC(C)S(=O)(=O)Nc1ccc(F)c(Oc2ccc3ncn(C4CC5(CCN(C6CC7(C6)CN(c6cc8c(cc6F)c(N6CCC(=O)NC6=O)nn8C)C7)CC5)C4)c(=O)c3c2)c1C#N (centres unmarked) [Compound 273, N-[2-cyano-3-[3-[7-[2-[3-(2,4-dioxohexahydropyrimidin-1-yl)-5-fluoro-1-methyl-indazol-6-yl]-2-azaspiro[3.3]heptan-6-yl]-7-azaspiro[3.5]nonan-2-yl]-4-oxo-quinazolin-6-yl]oxy-4-fluoro-phenyl]propane-2-sulfonamide] as the compound, how does the “BSEP Inhibition/IC50” value read?
Answer: 20580

Question: Which “BSEP Inhibition/IC50” value does the source give for Cn1nc(N2CCC(=O)NC2=O)c2cc(F)c(N3CC4(CC(N5CCC6(CC5)CC(n5cnc7ccc(Oc8c(F)ccc(NS(=O)(=O)N9C[C@H]%10C[C@H]%10C9)c8C#N)cc7c5=O)C6)C4)C3)cc21 (stereo partly drawn) [Compound 277, (1R,5S)-N-[2-cyano-3-[3-[7-[2-[3-(2,4-dioxohexahydropyrimidin-1-yl)-5-fluoro-1-methyl-indazol-6-yl]-2-azaspiro[3.3]heptan-6-yl]-7-azaspiro[3.5]nonan-2-yl]-4-oxo-quinazolin-6-yl]oxy-4-fluoro-phenyl]-3-azabicyclo[3.1.0]hexane-3-sulfonamide] here?
Answer: 11860

Source: patent publication US20260297060A1, “COMPOUNDS FOR THE DEGRADATION OF MUTANT BRAF” (C4 THERAPEUTICS, INC., priority 2023, published 2026)
